Here are results for ten molecules from ChEMBL document CHEMBL6074671, “Discovery of Pyridine-2-Carboxamides Derivatives as Potent and Selective HPK1 Inhibitors for the Treatment of Cancer” (J Med Chem, 2024).

Structures are written as SMILES.

Series [1] is described as follows: Effect on IFN-gamma secretion in human T cells by ELISA method. Type of series: functional, cell-based. As to conditions: T-cell. Background: ELISA stands for enzyme-linked immunosorbent assay.
Series [2] can be described thus: Effect on IL-2 secretion in human T cells by ELISA method. The format is functional, cell-based. The settings on record: T-cell.
Series [3] in a line: Inhibition of pSLP76 in human PBMC cells incubated for 4 hrs by HTRF method. Type of series: cell-based. (In general: Time-resolved FRET reads energy transfer from a long-lived donor to a nearby acceptor.)
The target of series [4] is T1, Mitogen-activated protein kinase kinase kinase kinase 3 (Homo sapiens, UniProt Q8IVH8).
T1 sequence (Q8IVH8 whole entry): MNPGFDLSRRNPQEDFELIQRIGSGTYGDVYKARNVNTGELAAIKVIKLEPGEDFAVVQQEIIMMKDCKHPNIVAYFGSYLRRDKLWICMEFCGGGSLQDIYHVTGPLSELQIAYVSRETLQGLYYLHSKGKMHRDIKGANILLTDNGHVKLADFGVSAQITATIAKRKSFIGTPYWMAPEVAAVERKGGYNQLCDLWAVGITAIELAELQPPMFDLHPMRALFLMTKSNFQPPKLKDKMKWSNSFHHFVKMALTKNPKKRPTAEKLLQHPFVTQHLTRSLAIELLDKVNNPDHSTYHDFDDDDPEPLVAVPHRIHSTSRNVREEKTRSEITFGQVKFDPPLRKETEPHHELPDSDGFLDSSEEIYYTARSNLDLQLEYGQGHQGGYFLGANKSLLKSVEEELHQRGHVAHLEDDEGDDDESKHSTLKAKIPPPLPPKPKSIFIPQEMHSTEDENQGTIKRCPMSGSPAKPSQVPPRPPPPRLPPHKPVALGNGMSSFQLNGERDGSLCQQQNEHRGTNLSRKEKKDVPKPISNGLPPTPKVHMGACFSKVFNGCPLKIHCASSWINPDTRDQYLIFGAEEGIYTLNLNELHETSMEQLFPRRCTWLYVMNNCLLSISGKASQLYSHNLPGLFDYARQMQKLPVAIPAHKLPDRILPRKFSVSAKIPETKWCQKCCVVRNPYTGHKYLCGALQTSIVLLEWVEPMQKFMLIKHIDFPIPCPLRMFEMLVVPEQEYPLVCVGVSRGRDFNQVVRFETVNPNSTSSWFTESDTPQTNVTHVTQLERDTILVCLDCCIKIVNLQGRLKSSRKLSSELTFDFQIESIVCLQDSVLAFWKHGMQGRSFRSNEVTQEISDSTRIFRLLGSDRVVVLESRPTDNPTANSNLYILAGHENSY
Kind of series: Inhibition of GLK (unknown origin).

The target in series [5] is T2, Mitogen-activated protein kinase kinase kinase kinase 1 (Homo sapiens, UniProt Q92918). Briefly: Inhibition of HPK1 in human PBMC cells assessed as IL-2 level pretreated for 4 hrs followed by anti-CD3/CD28 stimulation for 20 mins by HTRF method. The format is cell-based.
Series [6] concerns the target T2, Mitogen-activated protein kinase kinase kinase kinase 1. Kind of series: Inhibition of human recombinant wild type N-terminal HPK1 (1 to 346 residues) infected in insect Sf21 cells using fluorescein-PKC as substrate preincubated for 10 mins followed by substrate addition and measured after 90 mins by microplate reader based analysis. Type of series: single protein.

The nature of series [7]: Half life in Sprague-Dawley rat at 10 mg/kg, po. The format is ADME, organism-based. The settings on record: in vivo.
The nature of series [8]: Oral bioavailability in Balb/c mouse at 10 mg/kg. As to conditions: in vivo. Type of series: ADME, organism-based.
Series [9] can be described thus: in vivo. The settings on record: Balb/c, mouse, iv, 1 mg/kg.
Description: Volume of distribution in Balb/c mouse at 1 mg/kg, iv
Series [10] in a line: in vivo. The settings on record: Sprague-Dawley, rat, iv, 1 mg/kg.
Description: Volume of distribution in Sprague-Dawley rat at 1 mg/kg, iv
The conditions of series [11]: dog, in vivo, po, 2 mg/kg.
Series [12] in a line: in vivo. As to conditions: Beagle, dog, po, 2 mg/kg.
Description: Half life in Beagle dog at 2 mg/kg, po
A short description of series [13]: in vivo. The settings on record: Beagle, dog, po, 2 mg/kg. This is another data set of the same source.
Series [14] is described as follows: in vivo. As to conditions: Beagle, dog, plasma, iv, 1 mg/kg.
Description: Clearance in Beagle dog plasma at 1 mg/kg, iv
Series [15] is described as follows: Half life in Balb/c mouse at 10 mg/kg, po. The settings on record: in vivo. The format is ADME, organism-based.
A short description of series [16]: in vivo. The settings on record: Balb/c, mouse, plasma, iv, 1 mg/kg.
Description: Clearance in Balb/c mouse plasma at 1 mg/kg, iv
The nature of series [17]: Oral bioavailability n Sprague-Dawley rat at 10 mg/kg. The format is ADME, organism-based. The settings on record: in vivo.
Series [18] can be described thus: in vivo. As to conditions: Beagle, dog, iv, 1 mg/kg.
Description: Volume of distribution in Beagle dog at 1 mg/kg, iv
Series [19] in a line: Dose normalized AUC (0 to 24 hrs) in Sprague-Dawley rat at 10 mg/kg, po. The format is ADME, organism-based. As to conditions: in vivo.
Series [20] can be described thus: in vivo. As to conditions: Sprague-Dawley, rat, plasma, iv, 1 mg/kg.
Description: Clearance in Sprague-Dawley rat plasma at 1 mg/kg, iv
Series [21] can be described thus: Dose normalized AUC (0 to 24 hrs) in Balb/c mouse at 10 mg/kg, po. The format is ADME, organism-based. The settings on record: in vivo.
The nature of series [22]: Clearance in Balb/c mouse plasma administered as iv dose. The format is ADME, organism-based.
A short description of series [23]: Oral bioavailability in Balb/c mouse. Type of series: ADME, organism-based. As to conditions: in vivo.
Series [24] in a line: Half life in Balb/c mouse administered as po dose. The format is ADME, organism-based. The settings on record: in vivo.
The nature of series [25]: Dose normalized AUC (0 to 24 hrs) in Balb/c mouse administered as po dose. The settings on record: in vivo. Type of series: ADME, organism-based.
The nature of series [26]: Volume of distribution in Balb/c mouse administered as iv dose. The format is ADME, organism-based. As to conditions: in vivo.
The nature of series [27]: in vivo. The settings on record: Sprague-Dawley, rat, po.
Description: Oral bioavailability in Sprague-Dawley rat
Series [28] in a line: in vivo. The settings on record: Sprague-Dawley, rat, iv.
Description: Volume of distribution in Sprague-Dawley rat administered as iv dose
The nature of series [29]: in vivo. As to conditions: Sprague-Dawley, rat, plasma, iv.
Description: Clearance in Sprague-Dawley rat plasma administered as iv dose
A short description of series [30]: in vivo. The settings on record: Sprague-Dawley, rat, po. This is another data set of the same source.
Description: Half life in Sprague-Dawley rat administered as po dose

What is called EC50 is the concentration needed to bring the measured effect to its halfway point. A word on the IC50: it is the concentration needed to halve the response being measured. In general, half-life refers to the time in which the quantity being followed falls by half. High values mean slow decline, low ones rapid decline. Broadly, the bioavailability is the share of a dose that reaches the circulation, judged against a reference dose that is usually intravenous. A high value points to good availability. Usually Vd stands for the apparent volume that relates the amount in the body to the concentration in plasma or blood. Broadly, the clearance is the volume of plasma or blood freed of the substance per unit of time. Low readings indicate a low capacity for elimination, high ones a high capacity for elimination.

T2 sequence (Q92918 whole entry, the tested form may be a part): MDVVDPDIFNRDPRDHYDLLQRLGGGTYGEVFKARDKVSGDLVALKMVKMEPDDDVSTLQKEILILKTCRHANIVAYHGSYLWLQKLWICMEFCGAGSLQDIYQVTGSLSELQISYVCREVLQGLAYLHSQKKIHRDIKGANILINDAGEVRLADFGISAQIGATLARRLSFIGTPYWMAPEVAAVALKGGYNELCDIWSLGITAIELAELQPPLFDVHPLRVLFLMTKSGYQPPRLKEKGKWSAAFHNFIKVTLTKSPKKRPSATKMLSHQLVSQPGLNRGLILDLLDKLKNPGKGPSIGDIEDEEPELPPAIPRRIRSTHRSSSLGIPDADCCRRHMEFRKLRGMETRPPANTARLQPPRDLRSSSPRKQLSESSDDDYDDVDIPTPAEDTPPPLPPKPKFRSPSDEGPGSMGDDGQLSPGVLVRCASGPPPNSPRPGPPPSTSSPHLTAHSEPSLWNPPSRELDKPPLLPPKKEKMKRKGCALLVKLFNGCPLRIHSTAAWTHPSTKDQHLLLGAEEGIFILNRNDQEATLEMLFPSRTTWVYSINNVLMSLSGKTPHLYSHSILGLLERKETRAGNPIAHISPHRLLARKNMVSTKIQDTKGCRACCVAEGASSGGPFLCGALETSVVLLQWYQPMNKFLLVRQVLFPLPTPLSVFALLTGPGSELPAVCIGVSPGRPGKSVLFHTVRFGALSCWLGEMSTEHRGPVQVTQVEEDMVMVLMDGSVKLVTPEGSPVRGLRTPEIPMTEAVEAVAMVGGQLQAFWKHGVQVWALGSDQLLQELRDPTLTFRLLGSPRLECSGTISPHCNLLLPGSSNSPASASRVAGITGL

As for `CN(C)Cc1nc(Nc2ccc(-c3cnc4cc(F)ccn34)c3c2C(=O)NC3)ccc1C1CCOCC1`, the EC50 is 22.2 nM in series [1] and 35.3 nM in series [2]. The IC50 in series [3] was determined as 14 nM.

In the case of `COc1cc(Nc2ccc3c(n2)CN(C)C32CCOCC2)c(C(N)=O)nc1-c1cccc2c1ncn2C(F)F`, the IC50 was 322 nM in series [4] and under 0.51 nM in series [6]. For the same molecule, the half-maximal effective concentration (EC50) in [5] turned out to be 102 nM.

Take `CN1Cc2nc(Nc3cc(C4CC4)c(-c4cccc5c4ncn5C)nc3C(N)=O)ccc2C12CCN(C1COC1)CC2`: the IC50 in series [4] is 114 nM; in series [6], under 0.51 nM. Further, the half-life in [7] was 157 min; in [12], 364 min; in [15], 260 min. Besides, the bioavailability worked out at 24.6% in [8], 26.3% in series [13] and 54.7% in series [17]. The Vd in series [9] amounted to 1.08 L/kg; in series [10] it was 2.25 L/kg; in series [18] it was 6 L/kg. The EC50 in [5] came to 32.7 nM. Moreover, the AUC/dose in series [11] came to 289.2 ng·h/mL; in [19] it was 4502 ng·h/mL; in series [21], 308.2 ng·h/mL. The results for the clearance in series [14], in series [16] and in series [20] were 14.7 mL/min/kg, 13.2 mL/min/kg and 19.8 mL/min/kg, respectively.

As to `COc1cc(Nc2ccc3c(n2)CN(C)C32CCCC2)c(C(N)=O)nc1-c1cccc2c1ncn2C`, the figures for the IC50 in series [4] and in [6] were 162 nM and under 0.51 nM, respectively. The EC50 in [5] was 149 nM.

Take `CN1Cc2nc(Nc3cc(OC(F)F)c(-c4cccc5c4ncn5C)nc3C(N)=O)ccc2C12CCOCC2`: the IC50 in series [4] was 153 nM; in [6], under 0.51 nM. Moreover, the EC50 in series [5] came to 54.9 nM.

As for `CN1Cc2nc(Nc3ccc(C4=CCCC(NC(=O)c5ccccc5)C4)nc3C(N)=O)ccc2C12CCOCC2` (stereo unspecified), the concentration for half-maximal inhibition (IC50) in [4] worked out at 28.4 nM; in series [6], 0.64 nM. In series [22], this molecule displayed a clearance of 23.7 mL/min/kg. Also, the bioavailability in series [23] came to 38.6%. In [24], this molecule had a half-life of 55.8 min. In series [25], this molecule came in with an AUC/dose of 273.3 ng·h/mL. This molecule also displayed a Vd in series [26] of 1.08 L/kg.

With `COc1cc(Nc2ccc3c(n2)CN(C)C32CCOCC2)c(C(N)=O)nc1-c1cncc2c1ncn2C`, in series [27], the bioavailability was 24.3%. In addition, the IC50 in series [4] was 241 nM; in [6], under 0.51 nM. In addition, the EC50 in series [5] worked out at 10 nM. Further, the Vd in series [28] was 1.75 L/kg. The molecule further returned a clearance in series [29] of 32.6 mL/min/kg. The molecule also gave a half-life in series [30] of 73.2 min.

For `CCN1Cc2nc(Nc3cc(OC)c(-c4cccc5c4ncn5C)nc3C(N)=O)ccc2C12CCOCC2`, the figures for the half-maximal inhibitory concentration (IC50) in series [4] and in series [6] were 239 nM and under 0.51 nM, respectively. Besides, the EC50 in [5] turned out to be 168 nM.

Take `COc1cc(Nc2ccc3c(n2)CN(C)C32CCOCC2)c(C(N)=O)nc1-c1ccnc2c1ccn2C`: the figures for the half-inhibitory concentration (IC50) in series [4] and in series [6] were 27 nM and under 0.51 nM, respectively.

With `COc1cc(Nc2ccc3c(n2)CN(C)C32CCOCC2)c(C(N)=O)nc1-c1cncc2c1ccn2C`, the IC50 in [4] is 95 nM; in [6], under 0.51 nM.
